Experimental findings from publication PMC8272148, “Antioxidant Serine-(NSAID) Hybrids with Anti-Inflammatory and Hypolipidemic Potency” (Molecules, 2021) are described below.

Several values for one entry are separate records, joined by “and”; a condition that tells them apart may be missing. Identical values can stand only once. Marks after values point to notes of the source that are not given here.

The subject of experiment [1] is rat hepatic microsomal membrane lipid peroxidation. Briefly: Inhibition of rat hepatic microsomal membrane lipid peroxidation (ferrous ascorbate induced, TBA reactive material). The experiment is classed as biochemical. The conditions noted are these: after 45 min of incubation. As for the experimental part: The peroxidation of the heat-inactivated rat hepatic microsomal fraction was induced by ferrous ascorbate. The studied compounds, in dimethylsulfoxide, were added at concentrations of 1 μM–1 mM. Aliquots were taken from the incubation mixture (37 °C) for 45 min. Lipid peroxidation was assessed spectrophotometrically (535/600 nm) as a 2-thiobarbituric acid reactive material. The incubation mixture and solvents were found not to interfere with the assay.

Experiment [2] in a line: Interaction with the stable radical DPPH. The following applies: DPPH 200 μM, after 30 min. As for the experimental part: Compounds, dissolved in absolute ethanol, at concentrations of 25–200 μM, were added to an equal volume of an ethanolic solution of DPPH (final concentration 200 μM) at room temperature (22 ± 2 °C). Absorbance (517 nm) was recorded after 30 min [26]. For the calculation of percent interaction, the residual absorbance of DPPH Ai (at a fixed concentration) after its interaction with the examined compounds (at various concentrations) was compared with the control absorbance Ao, without the addition of compounds, following the equation: (1) Percent interaction=100−(Ai/Ao×100)

For experiment [3], the system named is carrageenan-induced rat paw edema. Nature of the experiment: Carrageenan-induced rat paw edema. Type of experiment: in vivo, Wistar rats. The following applies: ip, 0.15 mmol/kg i.p., 3.5 h after carrageenan, vs controls, read-out: % Edema Reduction. The procedure:
An amount of 0.1 mL of an aqueous carrageenan solution (1% w/v) was injected into the hind paw of adult Wistar rats (6 rats were used for each compound). The tested compounds (in water with a few drops of Tween 80) were administered i.p. (0.15 mmol/kg) 5 min before the carrageenan administration. The produced edema, after 3.5 h, was estimated as paw weight increase.

A further experiment has as its target T1, soybean lipoxygenase 1-B (Glycine max, UniProt P08170).
T1 sequence (P08170 1-839): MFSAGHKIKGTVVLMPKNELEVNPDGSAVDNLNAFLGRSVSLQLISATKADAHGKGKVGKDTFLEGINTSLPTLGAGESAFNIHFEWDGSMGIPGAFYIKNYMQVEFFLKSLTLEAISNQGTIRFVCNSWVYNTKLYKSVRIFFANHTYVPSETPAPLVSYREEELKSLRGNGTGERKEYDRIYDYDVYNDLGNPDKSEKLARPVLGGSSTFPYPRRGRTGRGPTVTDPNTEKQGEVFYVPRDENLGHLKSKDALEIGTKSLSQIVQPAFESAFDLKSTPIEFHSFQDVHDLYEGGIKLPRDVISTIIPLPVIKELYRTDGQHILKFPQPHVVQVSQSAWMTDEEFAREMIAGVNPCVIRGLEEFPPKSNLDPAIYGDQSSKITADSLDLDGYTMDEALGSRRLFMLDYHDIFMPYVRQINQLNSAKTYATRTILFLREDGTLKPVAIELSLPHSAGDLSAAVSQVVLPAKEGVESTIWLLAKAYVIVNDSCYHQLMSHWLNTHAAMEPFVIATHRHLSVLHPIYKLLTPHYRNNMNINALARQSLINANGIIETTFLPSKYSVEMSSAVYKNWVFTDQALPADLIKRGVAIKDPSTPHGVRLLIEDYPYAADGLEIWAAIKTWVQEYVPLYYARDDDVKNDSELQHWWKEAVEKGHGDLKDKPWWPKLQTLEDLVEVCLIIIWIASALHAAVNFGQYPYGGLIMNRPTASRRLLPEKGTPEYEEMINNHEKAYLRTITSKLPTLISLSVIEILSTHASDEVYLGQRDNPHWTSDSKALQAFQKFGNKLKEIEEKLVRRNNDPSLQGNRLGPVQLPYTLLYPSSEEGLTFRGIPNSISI
Nature of the experiment: In vitro inhibition of soybean lipoxygenase. The conditions noted are these: linoleic acid (100 μM) as substrate, after 7 min of incubation. The experiment is classed as biochemical. As for the experimental part:
The reaction mixture contained the test compounds, dissolved in absolute ethanol (0.1 mL) at various concentrations, or the solvent (control, 0.1 mL), soybean lipoxygenase dissolved in 0.9% NaCl solution (250 u/mL, 0.2 mL) and sodium linoleate (100 μM) in Tris–HCl buffer, pH 9.0 (2.7 mL). The reaction was followed for 7 min at 28 °C, recording the absorbance of a conjugated diene structure at 234 nm, due to the formation of 13-hydroperoxy-linoleic acid. […] For the estimation of the type of inhibition, the above experiments were repeated, using sodium linoleate at 1 mM, which is higher than the saturating substrate concentration.

The subject of experiment [4] is Triton WR1339 (tyloxapol)-induced hyperlipidemia. Briefly: Triton WR1339 (tyloxapol)-induced hyperlipidemia in rats. The experiment is classed as in vivo, Wistar rats. The following applies: 150 μmol/kg i.p., rat plasma, 24 h, tyloxapol 200 mg/kg i.p. As for the experimental part:
The examined compounds (0.15 mmol/kg) were administered i.p. one hour later. Blood was taken from the aorta after 24 h, for the determination of plasma total cholesterol, LDL cholesterol and triglyceride concentration, using commercial kits.

With `CCOC(=O)C(COC(=O)C(C)c1ccc(CC(C)C)cc1)NC(=O)/C=C/c1cc(C(C)(C)C)c(O)c(C(C)(C)C)c1` (stereo not drawn) [Compound 9, (E)-ethyl 2-(3-(3,5-di-tert-butyl-4-hydroxyphenyl)acrylamido)-3-((2-(4-isobutylphenyl)propanoyl)oxy)propanoate], the “Inhibition of Lipid Peroxidation, percent at 50 μM” value in experiment [1] (50 μM compound) is given as 20%/50 μM. The “Percent Interaction with DPPH” value in experiment [2] (compound 25 μM) is 15.5%; in experiment [2] (compound 50 μM), 31.8%; in experiment [2] (compound 100 μM), 58.0%; in experiment [2] (compound 200 μM), 90.9%. The inhibition in vivo at 150 µmol/kg in experiment [3] came to 52%. The same molecule came in with an IC50 on soybean lipoxygenase 1-B of 80 µM. Besides, the “% Reduction LDL-C (LDL cholesterol)” value in experiment [4] is 70% and 70.1 * %. For the same molecule, in experiment [4], the “% Reduction TC (total cholesterol)” value is 61% and 61.2 ** %. Also, the “% Reduction TG (triglycerides)” value in experiment [4] is 52% and 52.1 ** %.

Regarding `CCOC(=O)C(COC(=O)C(C)c1cccc(C(=O)c2ccccc2)c1)NC(=O)c1cc(C(C)(C)C)c(O)c(C(C)(C)C)c1` (stereo not drawn) [Compound 11, Ethyl 3-((2-(3-benzoylphenyl)propanoyl)oxy)-2-(3,5-di-tert-butyl-4-hydroxybenzamido)propanoate], the “Inhibition of Lipid Peroxidation, percent at 1 mM” value in experiment [1] (1 mM compound) stood at 30%/1 mM. Moreover, the “Percent Interaction with DPPH” value in experiment [2] (compound 200 μM) is recorded as “lower than 10%”. Also, the inhibition in vivo at 150 µmol/kg in experiment [3] amounted to 67%. It took 86 µM to reach half-maximal inhibition against soybean lipoxygenase 1-B (IC50). For the same molecule, in experiment [4], the “% Reduction LDL-C (LDL cholesterol)” value was 51.2 ** %, the “% Reduction TC (total cholesterol)” value is recorded as 57.6 ** % and the “% Reduction TG (triglycerides)” value is reported as 44.5 * %.

As to `CCOC(=O)C(COC(=O)C(C)c1cccc(C(=O)c2ccccc2)c1)NC(=O)/C=C/c1cc(C(C)(C)C)c(O)c(C(C)(C)C)c1` (stereo not drawn) [Compound 12, (E)-ethyl 3-((2-(3-benzoylphenyl)propanoyl)oxy)-2-(3-(3,5-di-tert-butyl-4-hydroxyphenyl)acrylamido)propanoate], in experiment [1] (100 μM compound), the “Inhibition of Lipid Peroxidation, percent at 100 μM” value is given as 20%/100 μM. The “Percent Interaction with DPPH” value in experiment [2] (compound 25 μM) turned out to be 20.0%; in experiment [2] (compound 50 μM), 24.7%; in experiment [2] (compound 100 μM) it was 53.8%; in experiment [2] (compound 200 μM) it was 94.0%. The inhibition in vivo at 150 µmol/kg in experiment [3] came out at 59%. For the same molecule, half-maximal inhibition on soybean lipoxygenase 1-B (IC50) required 90 µM. In addition, the “% Reduction LDL-C (LDL cholesterol)” value in experiment [4] is reported as 56.2 * %. Further, the “% Reduction TC (total cholesterol)” value in experiment [4] was 53.4 ** %. The “% Reduction TG (triglycerides)” value in experiment [4] is 33.2 * %.
